Laboratory results: patent US20230192700A1, “PYRAZOLOPYRAZINES ACTING ON CANCERS VIA INHIBITION OF CDK12” (Bayer Aktiengesellschaft, priority 2020, published 2023)

Key:
[1] = system: CAL-120 human breast adenocarcinoma cells; test: Proliferation assay CAL-120 (crystal violet); assay type: cell-based; conditions: Homo sapiens, CAL-120, 96 h, CAL-120 cells, 4 days, median, read-out: Prolif-CAL-120— IC50 - [mol/l] (median)
Protocol: 4. Proliferation assay: MDA-MB-231, CAL-120
Human tumour cells were originally obtained from the American Type Culture Collection (ATCC), or from the Deutsche Sammlung von Mikroorganismen and Zellkulturen (DSMZ, German Collection of Microorganisms and Cell Cultures). Cultivated tumour cells (CAL-120, human breast adenocarcinoma cells, DSMZ ACC-459; MDA-M B-231, human breast cancer cells, ATCC HTB-26) were plated at a density of 4,000 cells/well in a 96-well multititer plate in 200 microL of their respective growth medium supplemented 10% fetal calf serum. After 24 hours, the cells of one plate (zero-point plate) were stained with crystal violet (see below), while the medium of the other plates was supplemented with the test substances in various concentrations (0 micromol/L, as well as in the range of 0.01-10 micromol/L; the final concentration of the solvent dimethyl sulfoxide was adjusted to 0.1%) using a Tecan HP D300 Digital Dispenser. The cells were incubated for 4 days in the presence of test substances. Cell proliferation was determined by staining the cells with crystal violet: the cells were fixed by adding 20 microL/measuring point of an 11% glutaric aldehyde solution for 15 minutes at room temperature. After three washing cycles of the fixed cells with water, the plates were dried at room temperature. The cells were stained by adding 100 microL/measuring point of a 0.1% crystal violet solution (pH 3.0). After three washing cycles of the stained cells with water, the plates were dried at room temperature. The dye was dissolved by adding 100 microL/measuring point of a 10% acetic acid solution. The extinction was determined by photometry at a wavelength of 595 nm. The change of cell number, in percent, was calculated by normalization of the measured values to the extinction values of the zero-point plate(=0%) and the extinction of the untreated (0 μM) cells(=100%). The IC50 values (inhibitory concentration at 50% of maximal effect) were determined by means of a 4 parameter fit.

CDK12/CyclinK = molecular target: T1, CDK12/CyclinK (Homo sapiens, UniProt Q9NYV4); test: CDK12/CycK high ATP kinase assay (TR-FRET); assay type: biochemical; conditions: 2 mM ATP (high ATP); median; read-out: CDK12/CyclinK, 2 mM ATP (high ATP), IC50 - [mol/l] (median)
T1 construct: His-CDK12 (aa Q696-S1082); made in house; host or cells: Hi-5 insect cells (baculovirus co-infection with CycK and yeast CAK1)
T1 sequence (Q9NYV4 with tags, fused parts or gaps): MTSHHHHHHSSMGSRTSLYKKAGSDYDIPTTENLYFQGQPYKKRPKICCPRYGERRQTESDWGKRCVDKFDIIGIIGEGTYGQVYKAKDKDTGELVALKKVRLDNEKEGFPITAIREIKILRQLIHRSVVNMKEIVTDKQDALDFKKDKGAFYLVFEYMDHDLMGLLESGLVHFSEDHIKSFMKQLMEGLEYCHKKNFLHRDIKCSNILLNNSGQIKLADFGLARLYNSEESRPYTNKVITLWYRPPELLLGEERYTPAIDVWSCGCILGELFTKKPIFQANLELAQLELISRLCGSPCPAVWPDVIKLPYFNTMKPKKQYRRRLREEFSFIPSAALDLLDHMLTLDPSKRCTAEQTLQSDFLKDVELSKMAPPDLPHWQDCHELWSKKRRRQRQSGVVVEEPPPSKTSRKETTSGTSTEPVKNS
T1 sequence (O75909 with tags, fused parts or gaps partner limits assumed): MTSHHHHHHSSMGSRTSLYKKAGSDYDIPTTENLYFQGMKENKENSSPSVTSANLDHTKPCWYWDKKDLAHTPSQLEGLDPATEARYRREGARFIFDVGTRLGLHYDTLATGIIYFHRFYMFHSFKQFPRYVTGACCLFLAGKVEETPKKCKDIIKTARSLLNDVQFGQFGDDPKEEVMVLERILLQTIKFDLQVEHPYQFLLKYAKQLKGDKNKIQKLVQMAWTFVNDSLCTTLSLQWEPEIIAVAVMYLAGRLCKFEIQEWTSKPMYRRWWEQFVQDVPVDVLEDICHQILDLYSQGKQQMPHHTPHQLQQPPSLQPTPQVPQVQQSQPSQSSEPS
Method in brief: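 Human His-tagged CDK12/CycK (about 0.75 nM) preincubated with compound 15 min, then reacted 60 min at 22 °C with 2 mM ATP and 1 µM biotinylated peptide in HEPES pH 7.5 buffer. Phospho-Ser62 c-Myc epitope detected by TR-FRET (665/620 nm ratio); data normalised to no-inhibitor and no-enzyme controls.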

| Structure (SMILES) | IC50 [1] [nM] | IC50 (CDK12/CyclinK) [µM] |
| --- | --- | --- |
| CC(C)(C)OC(=O)N1CCC(n2nc(NCc3nc4ccccc4[nH]3)c3ncc(C4CC4)nc32)CC1 [Example 11, tert-butyl 4-(3-{[(1H-benzimidazol-2-yl)methyl]amino}-6-cyclopropyl-1H-pyrazolo[3,4-b]pyrazin-1-yl)piperidine-1-carboxylate] | 81.4 | > 20 |
| CC(C)n1nc(NCc2nc3ccccc3[nH]2)c2ncc(C3CC3)nc21 [Example 14, N-[(1H-benzimidazol-2-yl)methyl]-6-cyclopropyl-1-(propan-2-yl)-1H-pyrazolo[3,4-b]pyrazin-3-amine] | 96.4 | > 20 |
| CN1CCC(n2nc(NCc3nc4cc(Cl)c(Cl)cc4[nH]3)c3ncc(C4CC4)nc32)CC1 [Example 19, 6-cyclopropyl-N-[(5,6-dichloro-1H-benzimidazol-2-yl)methyl]-1-(1-methylpiperidin-4-yl)-1H-pyrazolo[3,4-b]pyrazin-3-amine] | 3.61 | > 20 |
| Cc1c(Cl)ccc2[nH]c(CNc3nn(C4CCN(C)CC4)c4nc(C5CC5)cnc34)nc12 [Example 21, N-[(5-chloro-4-methyl-1H-benzimidazol-2-yl)methyl]-6-cyclopropyl-1-(1-methylpiperidin-4-yl)-1H-pyrazolo[3,4-b]pyrazin-3-amine] | 7.93 | > 20 |
| CN1CCC(n2nc(NCc3nc4cc(Cl)ccc4[nH]3)c3ncc(C4CC4)nc32)CC1 [Example 22, N-[(5-chloro-1H-benzimidazol-2-yl)methyl]-6-cyclopropyl-1-(1-methylpiperidin-4-yl)-1H-pyrazolo[3,4-b]pyrazin-3-amine] | 4.21 | > 20 |
| CN1CCC(n2nc(NCc3nc4cc(C(F)(F)F)ccc4[nH]3)c3ncc(C4CC4)nc32)CC1 [Example 25, 6-cyclopropyl-1-(1-methylpiperidin-4-yl)-N-{[5-(trifluoromethyl)-1H-benzimidazol-2-yl]methyl}-1H-pyrazolo[3,4-b]pyrazin-3-amine] | 3.14 | 17.3 |
| Cc1c(F)ccc2[nH]c(CNc3nn(C4CCN(C)CC4)c4nc(C5CC5)cnc34)nc12 [Example 26, 6-cyclopropyl-N-[(5-fluoro-4-methyl-1H-benzimidazol-2-yl)methyl]-1-(1-methylpiperidin-4-yl)-1H-pyrazolo[3,4-b]pyrazin-3-amine] | 10.1 | > 20 |

Second part, the molecule after the results:

| IC50 [1] [nM] | IC50 (CDK12/CyclinK) [µM] | Structure (SMILES) |
| --- | --- | --- |
| 6.49 | > 20 | c1ccc2[nH]c(CNc3nn(C4CCNCC4)c4nc(C5CC5)cnc34)nc2c1 [Example 12, N-[(1H-benzimidazol-2-yl)methyl]-6-cyclopropyl-1-(piperidin-4-yl)-1H-pyrazolo[3,4-b]pyrazin-3-amine] |
| 103 | > 20 | c1ccc2[nH]c(CNc3nn(C4CCOCC4)c4nc(C5CC5)cnc34)nc2c1 [Example 16, N-[(1H-benzimidazol-2-yl)methyl]-6-cyclopropyl-1-(oxan-4-yl)-1H-pyrazolo[3,4-b]pyrazin-3-amine] |
| 7.27 | > 20 | CN1CCC(n2nc(NCc3nc4c(Br)cccc4[nH]3)c3ncc(C4CC4)nc32)CC1 [Example 20, N-[(4-bromo-1H-benzimidazol-2-yl)methyl]-6-cyclopropyl-1-(1-methylpiperidin-4-yl)-1H-pyrazolo[3,4-b]pyrazin-3-amine] |
| 15.4 | 12.3 | Fc1cccc2[nH]c(CNc3nn(C4CCOCC4)c4nc(C5CC5)cnc34)nc12 [Example 23, 6-cyclopropyl-N-[(4-fluoro-1H-benzimidazol-2-yl)methyl]-1-(oxan-4-yl)-1H-pyrazolo[3,4-b]pyrazin-3-amine] |
| 10 | 18.2 | COc1cccc2[nH]c(CNc3nn(C4CCOCC4)c4nc(C5CC5)cnc34)nc12 [Example 24, 6-cyclopropyl-N-[(4-methoxy-1H-benzimidazol-2-yl)methyl]-1-(oxan-4-yl)-1H-pyrazolo[3,4-b]pyrazin-3-amine] |
